From patent US20210254056A1, “IDENTIFICATION AND TARGETED MODULATION OF GENE SIGNALING NETWORKS” (CAMP4 THERAPEUTICS CORPORATION, priority 2017, published 2021)

System: hepatocytes
Experiment: RNA-seq of hepatocytes treated with Phase III failure compounds
Details: hepatocytes
Method: RNA-seq was performed to determine the effects of the compounds on hepatocytes.
Significance was determined by the criteria of FPKM≥0.5, a log 2(fold-change)≥1, and a […].

Compound: COc1cc(Nc2ncc(F)c(Nc3ccc4c(n3)N(COP(=O)(O)O)C(=O)C(C)(C)O4)n2)cc(OC)c1OC [fostamatinib]
- significant modulation of expression of disease genes (RNA-seq, q≤0.05, genes in the value or listed in the block): significantly (q≤0.05) modulate expression
- effect on disease gene expression (RNA-seq): effect on expression of too many disease genes
- RNA-seq results: A1BG expression (gene A1BG): 0.01
- RNA-seq results: AGTR1 expression (gene AGTR1): 0.25
- RNA-seq results: AGXT expression (gene AGXT): 0.45
- RNA-seq results: AHI1 expression (gene AHI1): 0.39
- RNA-seq results: AMPD3 expression (gene AMPD3): −0.90
- RNA-seq results: AMT expression (gene AMT): −0.28
- RNA-seq results: ANGPTL3 expression (gene ANGPTL3): 0.24
- RNA-seq results: ANKS4B expression (gene ANKS4B): 0.49
- RNA-seq results: ANKS6 expression (gene ANKS6): 0.03
- RNA-seq results: ANPEP expression (gene ANPEP): 0.49
- RNA-seq results: AOC2 expression (gene AOC2): 0.64
- RNA-seq results: APOA2 expression (gene APOA2): −0.31
- RNA-seq results: APOA5 expression (gene APOA5): 0.97
- RNA-seq results: APOB expression (gene APOB): 1.87
- RNA-seq results: COG5 expression (gene COG5): −0.12
- RNA-seq results: COG6 expression (gene COG6): 0.18
- RNA-seq results: COL1A1 expression (gene COL1A1): −0.09
- RNA-seq results: COX6A1 expression (gene COX6A1): 0.29
- RNA-seq results: CP expression (gene CP): −0.16
- RNA-seq results: CPS1 expression (gene CPS1): −0.56
- RNA-seq results: CPT1A expression (gene CPT1A): −0.03
- RNA-seq results: CPT2 expression (gene CPT2): 0.28
- RNA-seq results: CROT expression (gene CROT): 0.19
- RNA-seq results: CSPP1 expression (gene CSPP1): −0.09
- RNA-seq results: CTC1 expression (gene CTC1): 0.04
- RNA-seq results: CTDSP2 expression (gene CTDSP2): −0.06
- RNA-seq results: CTH expression (gene CTH): 0.15
- RNA-seq results: CTNS expression (gene CTNS): 0.1
- RNA-seq results: CTSF expression (gene CTSF): 0.07
- RNA-seq results: CTSK expression (gene CTSK): −0.13
- RNA-seq results: CYB5A expression (gene CYB5A): −0.01
- RNA-seq results: CYB5R3 expression (gene CYB5R3): 0.05
- RNA-seq results, CYP2B6 expression (gene CYP2B6): 0.55
- RNA-seq results: CYP2B6 expression (gene CYP2B6): −0.04
- RNA-seq results, CYP2C19 expression (gene CYP2C19): 0.61
- RNA-seq results: CYP2C19 expression (gene CYP2C19): −0.79
- RNA-seq results, CYP2D6 expression (gene CYP2D6): 0.31
- RNA-seq results: CYP2D6 expression (gene CYP2D6): −0.01
- RNA-seq results, CYP3A4 expression (gene CYP3A4): 3.59
- RNA-seq results: CYP3A4 expression (gene CYP3A4): 0.18
- RNA-seq results, CYP7B1 expression (gene CYP7B1): 0.59
- RNA-seq results: CYP7B1 expression (gene CYP7B1): −0.27
- RNA-seq results: CYP27A1 expression (gene CYP27A1): −0.03
- RNA-seq results, CYP39A1 expression (gene CYP39A1): 1.11
- RNA-seq results: CYP39A1 expression (gene CYP39A1): −0.23
- RNA-seq results: DAO expression (gene DAO): −0.06
- RNA-seq results: DBT expression (gene DBT): −0.01
- RNA-seq results: DCDC2 expression (gene DCDC2): −0.57
- RNA-seq results: DCXR expression (gene DCXR): 0.23
- RNA-seq results: FABP1 expression (gene FABP1): −0.33
- RNA-seq results: FADD expression (gene FADD): 0.17
- RNA-seq results: FAM111A expression (gene FAM111A): −0.14
- RNA-seq results: FAM111B expression (gene FAM111B): 1.04
- RNA-seq results: FAN1 expression (gene FAN1): 0.11
- RNA-seq results: FARS2 expression (gene FARS2): −0.7
- RNA-seq results: FASLG expression (gene FASLG): −0.31
- RNA-seq results: FGA expression (gene FGA): −0.24
- RNA-seq results: FGD1 expression (gene FGD1): 0.24
- RNA-seq results: FGFR2 expression (gene FGFR2): −1.3
- RNA-seq results: FIG4 expression (gene FIG4): −0.09
- RNA-seq results: FIS1 expression (gene FIS1): 0.19
- RNA-seq results: FTCD expression (gene FTCD): −0.37
- RNA-seq results: FTH1 expression (gene FTH1): 0.34
- RNA-seq results: FUCA1 expression (gene FUCA1): 0.04
- RNA-seq results: FXN expression (gene FXN): −0.11
- RNA-seq results: G6PC3 expression (gene G6PC3): 0.11
- RNA-seq results: G6PC expression (gene G6PC): −0.55
- RNA-seq results: G6PD expression (gene G6PD): 0.55
- RNA-seq results: GALK1 expression (gene GALK1): 0.19
- RNA-seq results: GALK2 expression (gene GALK2): 0.04
- RNA-seq results: GALT expression (gene GALT): −0.13
- RNA-seq results: GATA6 expression (gene GATA6): −0.12
- RNA-seq results: GATM expression (gene GATM): −0.13
- RNA-seq results: GBA expression (gene GBA): 0.02
- RNA-seq results: GBE1 expression (gene GBE1): −0.01
- RNA-seq results: GCH1 expression (gene GCH1): 0.04
- RNA-seq results: GCKR expression (gene GCKR): −0.15
- RNA-seq results: GCLC expression (gene GCLC): 0.18
- RNA-seq results: GOSH expression (gene GOSH): 0.18
- RNA-seq results: RRM2B (gene RRM2B): 0.45
- RNA-seq results: RSAD1 (gene RSAD1): 0.22
- RNA-seq results: SAMHD1 (gene SAMHD1): −0.22
- RNA-seq results: SC5D (gene SC5D): 0.22
- RNA-seq results: SCARB1 (gene SCARB1): −0.40
- RNA-seq results: SCN9A (gene SCN9A): −0.97
- RNA-seq results: SDCCAG8 (gene SDCCAG8): 0.11
- RNA-seq results: SEPN1 (gene SEPN1): −0.18
- RNA-seq results: SERAC1 (gene SERAC1): −0.05
- RNA-seq results: SERPINA1 (gene SERPINA1): 0.31
- RNA-seq results: SERPING1 (gene SERPING1): 0.27
- RNA-seq results: SERPINI1 (gene SERPINI1): 0.67
- RNA-seq results: SETBP1 (gene SETBP1): −0.46
- RNA-seq results: SFXN4 (gene SFXN4): 0.01
- RNA-seq results: SLC10A1 (gene SLC10A1): 0.97
- RNA-seq results: SLC10A3 (gene SLC10A3): −0.64
- RNA-seq results: SLC10A5 (gene SLC10A5): 1.23
- RNA-seq results: SLC10A7 (gene SLC10A7): −0.12
- RNA-seq results: SLC11A2 (gene SLC11A2): −0.54
- RNA-seq results: SLC19A1 (gene SLC19A1): −0.37
- RNA-seq results: SLC19A2 (gene SLC19A2): −0.01
- RNA-seq results: SLC19A3 (gene SLC19A3): 0.18
- RNA-seq results: SLC22A1 (gene SLC22A1): 0.16
- RNA-seq results: SLC22A5 (gene SLC22A5): −0.46
- RNA-seq results: SLC25A1 (gene SLC25A1): −0.04
- RNA-seq results: SLC25A10 (gene SLC25A10): 0.24
- RNA-seq results: SLC25A12 (gene SLC25A12): −0.27
- RNA-seq results: SLC25A13 (gene SLC25A13): 0.22
- RNA-seq results: SLC25A15 (gene SLC25A15): 1.61
- RNA-seq results: SLC25A19 (gene SLC25A19): 0.07
- RNA-seq results: SLC25A20 (gene SLC25A20): 0.62
- RNA-seq results: SLC25A29 (gene SLC25A29): −0.40
- RNA-seq results: SLC25A32 (gene SLC25A32): −0.06

Compound: COc1cc2ncnc(Nc3ccc(F)c(Cl)c3)c2cc1NC(=O)/C=C/CN1CCCCC1 [Dacomitinib (PF299804, PF299), Dacomitinib]
- significant modulation of expression of any of the genes analyzed (RNA-seq, p≤0.05): not observed to significantly modulate expression
